Source: patent publication US9765075B2, “Substituted bridged urea analogs as sirtuin modulators” (GLAXOSMITHKLINE LLC, priority 2013, dated 2017)
Like-named read-outs stand apart in the source and are kept apart here.

Molecular target: T1, SIRT1 (Homo sapiens, UniProt Q96EB6)
T1 sequence (Q96EB6 1-747): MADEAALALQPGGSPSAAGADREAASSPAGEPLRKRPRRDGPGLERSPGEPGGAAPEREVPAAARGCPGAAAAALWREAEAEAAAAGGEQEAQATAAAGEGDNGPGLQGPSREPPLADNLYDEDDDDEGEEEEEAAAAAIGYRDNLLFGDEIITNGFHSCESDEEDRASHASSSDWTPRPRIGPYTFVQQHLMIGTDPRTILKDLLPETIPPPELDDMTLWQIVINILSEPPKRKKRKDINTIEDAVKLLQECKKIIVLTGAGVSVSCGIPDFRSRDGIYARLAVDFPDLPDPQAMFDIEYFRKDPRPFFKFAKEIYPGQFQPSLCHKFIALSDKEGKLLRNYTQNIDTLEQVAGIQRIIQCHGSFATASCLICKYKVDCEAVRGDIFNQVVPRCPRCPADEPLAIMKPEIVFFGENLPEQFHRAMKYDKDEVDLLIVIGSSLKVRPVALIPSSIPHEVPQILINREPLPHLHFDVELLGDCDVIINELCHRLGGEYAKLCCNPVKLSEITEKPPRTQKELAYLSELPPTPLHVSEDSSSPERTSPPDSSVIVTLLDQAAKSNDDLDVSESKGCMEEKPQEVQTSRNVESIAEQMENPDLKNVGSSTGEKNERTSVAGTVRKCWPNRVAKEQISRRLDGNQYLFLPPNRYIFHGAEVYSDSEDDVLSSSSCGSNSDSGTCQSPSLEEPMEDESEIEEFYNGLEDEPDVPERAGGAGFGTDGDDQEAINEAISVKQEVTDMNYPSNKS
Experiment: Trp mass spectrometry assay (SIRT1 activation)
Assay type: biochemical
Conditions: for Emax: percent maximum fold activation of SIRT1, read-out: Tryp % Fold Act
In short: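 N-His-tagged SIRT1 (10 nM), expressed in E. coli, was incubated with 0.5 μM Ac-RHKK(Ac)W-NH2 peptide and 120 μM NAD+ for 25 min at 25 °C in HEPES pH 7.5 with […]. The reaction was stopped with formic acid and O-acetyl-ADP-ribose or deacetylated peptide was quantified by mass spectrometry. Results are given as EC1.5 and percent maximal activation relative to DMSO control.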

[1] = concentration of test compound that results in 150% activation of SIRT1, Trp peptide substrate
[2] = Trp mass spectrometry assay, EC1.5 = concentration giving 150% activation of SIRT1
[3] = Trp mass spectrometry assay, EC1.5 = concentration of test compound that results in 150% activation of SIRT1

Tryp AVG EC1.5 (μM) [1]	Emax (Trp peptide substrate) [%]	Tryp AVG EC1.5 (μM) [2]	Emax (Trp mass spectrometry assay) [%]	Tryp AVG EC1.5 (μM) [3]	SMILES
B (EC1.5 1-25 μM)	≥ 150				Cc1c(-c2ccc3c(n2)N(C(=O)Nc2cnccn2)[C@H]2CCN3C2)cnn1C [Example 532]
		A (EC1.5<1 μM)	≥ 150		NCCCc1ccc(NC(=O)N2c3nc(-c4cccc(C(F)(F)F)c4)ccc3N3CC[C@H]2C3)cc1-c1cnco1 [Example 765]
B (EC1.5 1-25 μM)	≥ 150				N#Cc1cccc(-c2ccc3c(n2)N(C(=O)Nc2ccccn2)[C@@H]2CCCN3C2)c1 [Example 225]
A (EC1.5<1 μM)	≥ 150				Cc1cncc(NC(=O)N2c3nc(N4CCCC(C(F)(F)F)C4)ccc3N3CCC[C@H]2C3)c1 (some centres unmarked) [Example 289]
B (EC1.5 1-25 μM)	≥ 150				O=C(Nc1cnccn1)N1c2nc(-c3ccnc(F)c3)ccc2N2CC[C@H]1C2 [Example 284]
		A (EC1.5<1 μM)	≥ 150		O=C(Nc1ccc(Br)c(-c2cnco2)c1)N1c2nc(-c3cccc(C(F)(F)F)c3)ccc2N2CC[C@H]1C2 [Example 672]
B (EC1.5 1-25 μM)	≥ 150				N#Cc1cccc(-c2ccc3c(n2)N(C(=O)Nc2ccc(F)cn2)[C@@H]2CCCN3C2)c1 [Example 227]
B (EC1.5 1-25 μM)	≥ 150				O=C(Nc1cncc(F)c1)N1c2nc(-c3cccnc3)ccc2N2CCC[C@H]1C2 [Example 453]
			≥ 150	B (EC1.5 1-25 μM)	O=C(Nc1ccncc1F)N1c2nc(C3CCCC(C(F)(F)F)C3)ccc2N2CC[C@H]1C2 (some centres unmarked) [Example 148]
A (EC1.5<1 μM)	≥ 150				O=C(Nc1ccc(F)cn1)N1c2nc(-c3ccnc(N4CC[C@H](F)C4)c3)ccc2N2CC[C@H]1C2 [Example 463]
		B (EC1.5 1-25 μM)	≥ 150		O=C(NCCCn1ccnc1)N1c2nc(-c3cccc(C(F)(F)F)c3)ccc2N2CC[C@H]1C2 [Example 627]
A (EC1.5<1 μM)	≥ 150				Cc1cc(NC(=O)N2c3nc(-c4cccc(C(F)(F)F)c4)ccc3N3CC[C@H]2C3)cc(Br)n1 [Example 540]
			≥ 150	B (EC1.5 1-25 μM)	O=C(Nc1ccc(F)cn1)N1c2nc(-c3cccc(OC[C@@H](O)CO)c3)ccc2N2CC[C@H]1C2 [Example 146]
A (EC1.5<1 μM)	≥ 150				O=C(Nc1ccccn1)N1c2nc(N3CCCC(C(F)(F)F)C3)ccc2N2CCC[C@H]1C2 (some centres unmarked) [Example 286]
		A (EC1.5<1 μM)	≥ 150		CCCCC(=O)c1cccc(NC(=O)N2c3nc(-c4cccc(C(F)(F)F)c4)ccc3N3CC[C@H]2C3)c1 [Example 737]
A (EC1.5<1 μM)	≥ 150				O=C(Nc1cnccn1)N1c2nc(-c3cncc(Cl)c3)ccc2N2CC[C@H]1C2 [Example 275]
B (EC1.5 1-25 μM)	≥ 150				O=C(Nc1cccnc1)N1c2nc(-c3cc[nH]n3)ccc2N2CC[C@H]1C2 [Example 493]
B (EC1.5 1-25 μM)	≥ 150				O=C(Nc1ccccn1)N1c2nc(-c3cccc(N4CCC(C(F)(F)F)C4)c3)ccc2N2CC[C@H]1C2 (some centres unmarked) [Example 318]
A (EC1.5<1 μM)	≥ 150				COc1cc(NC(=O)N2c3nc(-c4cccc(N5CC[C@@H](F)C5)c4)ccc3N3CC[C@H]2C3)ncn1 [Example 281]
			≥ 150	B (EC1.5 1-25 μM)	O=C(Nc1ccc(F)cn1)N1c2nc(-c3cccc(Cl)c3)ccc2N2CC[C@@H]1C2 [Example 204]

Tryp AVG EC1.5 (μM) [1]	Emax (Trp peptide substrate) [%]	Tryp AVG EC1.5 (μM) [2]	Emax (Trp mass spectrometry assay) [%]	Tryp AVG EC1.5 (μM) [3]	SMILES
		A (EC1.5<1 μM)	≥ 150		C#CCNc1nccc(NC(=O)N2c3nc(-c4cccc(C5(C(F)(F)F)N=N5)c4)ccc3N3CC[C@H]2C3)n1 [Example 804]
			≥ 150	A (EC1.5<1 μM)	O=C(Nc1ccccn1)N1c2nc(-c3cccc(OC(F)(F)F)c3)ccc2N2CC[C@H]1C2 [Example 138]
B (EC1.5 1-25 μM)	≥ 150				O=C(NCCc1ccncc1)N1c2nc(-c3cccc(C(F)(F)F)c3)ccc2N2CC[C@H]1C2 [Example 613]
		A (EC1.5<1 μM)	≥ 150		O=C1CN2C[C@H]1N(C(=O)Nc1cccc(-c3cnco3)c1)c1nc(-c3cccc(C(F)(F)F)c3)ccc12 [Example 692]
B (EC1.5 1-25 μM)	≥ 150				CC(C)(C)OC(=O)N1CCCc2ccc(NC(=O)N3c4nc(-c5cccc(C(F)(F)F)c5)ccc4N4CC[C@H]3C4)cc21 [Example 610]
B (EC1.5 1-25 μM)	≥ 150				Cc1ccc(-c2ccc3c(n2)N(C(=O)Nc2ccccn2)[C@H]2CCN3C2)cn1 [Example 221]
A (EC1.5<1 μM)	≥ 150				Cc1cncc(-c2ccc3c(n2)N(C(=O)Nc2ccncn2)[C@H]2CCCN3C2)c1 [Example 517]
A (EC1.5<1 μM)	≥ 150				O=C(Nc1cccnc1)N1c2nc(-c3cncc(C(F)(F)F)c3)ccc2N2CC[C@H]1C2 [Example 556]
C (EC1.5>25 μM)	< 150				O=C(CCCCCNC(=O)c1ccc(-c2c3ccc(=O)cc-3oc3cc(O)ccc23)c(C(=O)O)c1)NCc1ccc(NC(=O)N2c3nc(-c4cccc(C(F)(F)F)c4)ccc3N3CC[C@H]2C3)cc1 [Example 547]
B (EC1.5 1-25 μM)	≥ 150				O=C(NCCc1ccccn1)N1c2nc(-c3cccc(C(F)(F)F)c3)ccc2N2CC[C@H]1C2 [Example 614]
		A (EC1.5<1 μM)	≥ 150		C#CCOc1cccc(NC(=O)N2c3nc(-c4cccc(C5(C(F)(F)F)N=N5)c4)ccc3N3CC[C@H]2C3)c1 [Example 797]
			≥ 150	A (EC1.5<1 μM)	Cn1ncc2cc(NC(=O)N3c4nc(-c5cccc(OC(F)(F)F)c5)ccc4N4CC[C@H]3C4)ccc21 [Example 175]
B (EC1.5 1-25 μM)	≥ 150				O=C(Nc1cnccn1)N1c2nc(-c3cccc(N4CCC(C(F)(F)F)C4)c3)ccc2N2CC[C@H]1C2 (some centres unmarked) [Example 319]
A (EC1.5<1 μM)	≥ 150				COc1cnc(NC(=O)N2c3nc(-c4ccnc(C)c4)ccc3N3CC[C@H]2C3)cn1 [Example 500]
B (EC1.5 1-25 μM)	≥ 150				Cc1nc(NC(=O)N2c3nc(-c4ccccc4C#N)ccc3N3CCC[C@H]2C3)sc1C [Example 476]
B (EC1.5 1-25 μM)	≥ 150				Cc1nc(NC(=O)N2c3nc(-c4cccnc4)ccc3N3CCC[C@H]2C3)sc1C [Example 466]
		A (EC1.5<1 μM)	≥ 150		O=C(CCCCCNC(=O)c1ccc2c(c1)C(=O)OC21c2ccc(O)cc2Oc2cc(O)ccc21)NCc1ncc(-c2cccc(NC(=O)N3c4nc(-c5cccc(C(F)(F)F)c5)ccc4N4CC[C@H]3C4)c2)o1 [Example 708]
			≥ 150	B (EC1.5 1-25 μM)	O=C(Nc1ccnc(F)c1)N1c2nc(C3CCCC(C(F)(F)F)C3)ccc2N2CC[C@H]1C2 (some centres unmarked) [Example 154]
B (EC1.5 1-25 μM)	≥ 150				COC(=O)N1CCCN(c2ccc3c(n2)N(C(=O)Nc2ccncn2)[C@H]2CCCN3C2)CC1 [Example 446]
B (EC1.5 1-25 μM)	≥ 150				O=C(Nc1cncc(F)c1)N1c2nc(-c3cccc(N4CCC(C(F)(F)F)C4)c3)ccc2N2CC[C@H]1C2 (some centres unmarked) [Example 323]
